# Test results as given in US20220267260A1, “COMPOUNDS CONTAINING A SULFONIC GROUP AS KAT INHIBITORS” (Epizyme, Inc., priority 2016, published 2022).
# Counter-ions that a name gives are not always drawn.
# Key:
# [1] = biological target: T1, KAT5 (Homo sapiens, UniProt Q92993); experiment: KAT5 enzyme inhibition assay (SAMDI mass spectrometry); assay type: biochemical; conditions: His-TEV-FL KAT5-Flag enzyme construct
# T1 construct: His-TEV tag (N, cleaved yes); made in house
# [2] = biological target: T2, KAT6A (Homo sapiens, UniProt Q92794); experiment: KAT6A enzyme inhibition assay (SAMDI mass spectrometry); assay type: biochemical; conditions: His-TEV-KAT6A 501-784 enzyme construct
# T2 construct: His-TEV tag (N, cleaved yes); made in house
# T2 sequence (Q92794 with tags, fused parts or gaps): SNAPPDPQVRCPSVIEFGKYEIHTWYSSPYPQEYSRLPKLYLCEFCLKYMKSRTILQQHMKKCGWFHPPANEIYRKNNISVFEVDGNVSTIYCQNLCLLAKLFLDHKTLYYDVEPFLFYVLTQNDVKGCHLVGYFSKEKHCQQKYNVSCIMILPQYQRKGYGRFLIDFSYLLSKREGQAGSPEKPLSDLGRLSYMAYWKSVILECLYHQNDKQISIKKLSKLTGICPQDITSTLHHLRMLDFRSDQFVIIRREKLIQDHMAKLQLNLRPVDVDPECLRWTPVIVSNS
# T1 sequence (Q92993 with tags, fused parts or gaps): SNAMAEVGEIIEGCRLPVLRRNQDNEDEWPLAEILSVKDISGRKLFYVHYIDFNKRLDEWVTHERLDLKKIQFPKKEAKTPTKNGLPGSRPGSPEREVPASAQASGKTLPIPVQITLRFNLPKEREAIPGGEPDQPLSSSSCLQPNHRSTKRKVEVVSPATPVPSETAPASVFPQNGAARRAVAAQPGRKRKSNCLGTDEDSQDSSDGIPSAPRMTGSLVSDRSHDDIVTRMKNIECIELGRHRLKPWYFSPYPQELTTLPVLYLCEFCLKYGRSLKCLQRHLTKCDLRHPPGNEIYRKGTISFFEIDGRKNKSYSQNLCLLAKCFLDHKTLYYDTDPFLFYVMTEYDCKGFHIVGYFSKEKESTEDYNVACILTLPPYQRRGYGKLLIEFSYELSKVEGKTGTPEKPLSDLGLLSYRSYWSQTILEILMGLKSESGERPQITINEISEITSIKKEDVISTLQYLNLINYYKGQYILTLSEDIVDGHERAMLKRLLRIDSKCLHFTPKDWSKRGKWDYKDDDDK
Compound,IC50 [1],IC50 [2]
Cc1cccc(-c2cc(Cl)c(F)c(C(=O)NNS(=O)(=O)CC3CCNC3)c2)c1 (stereo not shown) [Compound I-517],> 100 µM,> 100 µM
Cc1cc(-c2ccccc2)cc(C(=O)NNS(=O)(=O)C2CCN(C(=O)OC(C)(C)C)CC2)c1F [Compound I-88],≤ 10 µM,≤ 10 µM
Cc1cc(-c2ccccc2)cc(C(=O)NNS(=O)(=O)C2CCNC2)c1F (stereo not shown) [Compound I-23],10 to 50 µM,10 to 50 µM
Cc1cc(-c2cccc(F)c2)cc(C(=O)NNS(=O)(=O)C2CCCCC2)c1F [Compound I-323],≤ 10 µM,≤ 10 µM
Cc1cc(-c2ccccc2)cc(C(=O)NNS(=O)(=O)CC2CCN(C(=O)OC(C)(C)C)C2)c1F (stereo not shown) [Compound I-206],≤ 10 µM,≤ 10 µM
Cc1cc(-c2ccccc2)cc(C(=O)NNS(=O)(=O)C2CCNCC2)c1F [Compound I-89],> 100 µM,> 100 µM
O=C(NNS(=O)(=O)C1CCCCC1)c1cc(-c2ccccc2)cc(Cl)c1F [Compound I-306],≤ 10 µM,≤ 10 µM
Cc1cc(-c2ccccc2)cc(C(=O)NCc2noc3ccccc23)c1F [Compound I-368],50 to 100 µM,50 to 100 µM
Cc1cc(-c2cc(F)cc(F)c2)cc(C(=O)NNS(=O)(=O)C2CCCCC2)c1F [Compound I-317],≤ 10 µM,10 to 50 µM
Cc1cc(-c2ccccc2)cc(C(=O)NNS(=O)(=O)C(C)(C)C)c1F [Compound I-21],> 100 µM,> 100 µM
Cc1cc(-c2ccccc2)cc(C(=O)NNS(=O)(=O)C2CCN(C(=O)C(C)C)CC2)c1F [Compound I-108],≤ 10 µM,10 to 50 µM
O=C(NNS(=O)(=O)C1CCCCC1)c1c(Cl)ccc(Cl)c1F [Compound I-461],> 100 µM,> 100 µM
Cc1cc(-c2cccc(F)c2)cc(C(=O)NNS(=O)(=O)CC2CCN(C(=O)CCN(C)C)CC2)c1F [Compound I-432],10 to 50 µM,10 to 50 µM
Cc1cccc(-c2cc(Cl)c(F)c(C(=O)NNS(=O)(=O)CC3CCN(C(=O)OC(C)(C)C)C3)c2)c1 (stereo not shown) [Compound I-516],≤ 10 µM,> 100 µM
Cc1cc(C2CCCN(C)C2)cc(C(=O)NNS(=O)(=O)C2CCCCC2)c1F (stereo not shown) [Compound I-287],> 100 µM,> 100 µM
O=C(NC1CCC1)c1cc(Cl)c(F)c(C(=O)NNS(=O)(=O)C2CCOCC2)c1 [Compound I-488],> 100 µM,> 100 µM

Compound,IC50 [1],IC50 [2]
O=C(NNS(=O)(=O)CC1CCOCC1)c1cc(Cl)cc(Cl)c1F [Compound I-412],10 to 50 µM,> 100 µM
Cc1cc(-c2ccccc2)cc(C(=O)NNS(=O)(=O)CC2CCN(C)CC2)c1F [Compound I-349],10 to 50 µM,10 to 50 µM
CNC(=O)Cn1cc(F)c(C(=O)NNS(=O)(=O)C2CCCCC2)n1 [Compound I-496],> 100 µM,> 100 µM
Cc1cc(-c2ccccc2)cc(C(=O)NNS(=O)(=O)C2CCCN(C(=O)C(C)C)C2)c1F (stereo not shown) [Compound I-111],10 to 50 µM,≤ 10 µM
Cc1cc(-c2cccc(F)c2)cc(C(=O)NNS(=O)(=O)CC2CCN(C(=O)OC(C)(C)C)CC2)c1F [Compound I-359],≤ 10 µM,≤ 10 µM
Cc1cc(-c2cccc(C(=O)O)c2)cc(C(=O)NNS(=O)(=O)C2CCCCC2)c1F [Compound I-444],≤ 10 µM,≤ 10 µM
CCc1cc(Cl)c(F)c(C(=O)NNS(=O)(=O)CC2CCCCC2)c1 [Compound I-421],≤ 10 µM,10 to 50 µM
Cc1cc(-c2cccc(F)c2)cc(C(=O)NNS(=O)(=O)CC2CN(C(=O)OC(C)(C)C)CCO2)c1F (stereo not shown) [Compound I-425],≤ 10 µM,≤ 10 µM
CCC(=O)N1CCCC(CS(=O)(=O)NNC(=O)c2cc(-c3ccccc3)cc(C)c2F)C1 (stereo not shown) [Compound I-280],≤ 10 µM,≤ 10 µM
COCCN1CCC(CS(=O)(=O)NNC(=O)c2cc(-c3ccccc3)cc(C)c2F)CC1 [Compound I-507],≤ 10 µM,≤ 10 µM
CCNC(=O)N1CCC(CS(=O)(=O)NNC(=O)c2cc(-c3cccc(C)c3)cc(Cl)c2F)C1 (stereo not shown) [Compound I-518],> 100 µM,> 100 µM
Cc1cc(Cl)cc(C(=O)NNS(=O)(=O)C2CCCCC2)c1F [Compound I-299],10 to 50 µM,50 to 100 µM
Cc1cc(-c2ccccc2)cc(C(=O)NNS(=O)(=O)C2CCCN(C(C)C)C2)c1F (stereo not shown) [Compound I-100],> 100 µM,50 to 100 µM
Cc1cc(-c2cccc(F)c2)cc(C(=O)NNS(=O)(=O)CC2CCCNC2)c1F (stereo not shown) [Compound I-278],50 to 100 µM,> 100 µM
Cc1cc(-c2cccc(Cl)c2)cc(C(=O)NNS(=O)(=O)CC2CCCCC2)c1F [Compound I-342],50 to 100 µM,50 to 100 µM
Cc1cc(-c2ccccc2)cc(C(=O)NNS(=O)(=O)CC2CCNC2)c1F (stereo not shown) [Compound I-320],10 to 50 µM,10 to 50 µM

# Results, then the molecule that gave them:
IC50 [1],IC50 [2],Compound
> 100 µM,> 100 µM,O=S(=O)(NNc1nc2ccccc2[nH]1)c1ccccc1 [Compound I-12]
> 100 µM,> 100 µM,Cn1ncc2c(C(=O)NNS(=O)(=O)c3ccccc3)cc(-c3ccccc3)cc21 [Compound I-20]
> 100 µM,50 to 100 µM,Cc1cccc(-c2ccc(F)c(C(=O)NNS(=O)(=O)c3ccccc3)c2C)c1 [Compound I-273]
≤ 10 µM,≤ 10 µM,Cc1cccc(-c2cc(C)c(F)c(C(=O)NNS(=O)(=O)c3ccccc3)c2)c1 [Compound I-326]
> 100 µM,> 100 µM,O=C(NNS(=O)(=O)c1ccccc1)c1c[nH]c2ccccc12 [Compound I-158]
≤ 10 µM,≤ 10 µM,O=C(NNS(=O)(=O)c1ccccc1)c1c(F)c(Cl)cc(-c2ccccc2)c1F [Compound I-136]
50 to 100 µM,50 to 100 µM,Cc1cc(-c2cccc(C(=O)OCc3ccccc3)c2)cc(C(=O)NNS(=O)(=O)c2ccccc2)c1F [Compound I-449]
> 100 µM,50 to 100 µM,O=C(NNS(=O)(=O)c1cccc(Cl)c1)c1c(F)ccc(-c2ncc[nH]2)c1F [Compound I-170]
> 100 µM,≤ 10 µM,Cc1cccc(S(=O)(=O)NNC(=O)c2cccc(-c3ccccc3)c2F)c1 [Compound I-226]
10 to 50 µM,10 to 50 µM,Cc1c(-c2ccccc2)ccc(F)c1C(=O)NNS(=O)(=O)c1ccc2ccccc2c1 [Compound I-240]
> 100 µM,> 100 µM,O=C(NNS(=O)(=O)c1ccccc1Cl)c1ccccc1F [Compound I-130]
> 100 µM,> 100 µM,Cc1c(-c2ccccc2)ccc(F)c1C(=O)NNS(=O)(=O)C1CCCC1 [Compound I-249]
50 to 100 µM,> 100 µM,Cc1c(-c2ccccc2)ccc(F)c1C(=O)NNS(=O)(=O)Cc1ccccc1 [Compound I-361]
10 to 50 µM,≤ 10 µM,COCCOc1cccc(-c2cc(C)c(F)c(C(=O)NNS(=O)(=O)c3ccccc3)c2)c1 [Compound I-279]
≤ 10 µM,≤ 10 µM,Cc1cc(-c2ccccc2)cc(C(=O)NNS(=O)(=O)c2ccc(O)cc2)c1F [Compound I-211]
50 to 100 µM,10 to 50 µM,O=C(NNS(=O)(=O)c1ccccc1)c1c(F)ccc(-c2cnc[nH]2)c1F [Compound I-497]
> 100 µM,10 to 50 µM,Cn1ccnc1-c1ccc(F)c(C(=O)NNS(=O)(=O)c2ccccc2)c1F [Compound I-172]

IC50 [1],IC50 [2],Compound
10 to 50 µM,≤ 10 µM,COCCNC(=O)c1cccc(-c2cc(C)c(F)c(C(=O)NNS(=O)(=O)c3ccccc3)c2)c1 [Compound I-494]
> 100 µM,50 to 100 µM,O=C(NS(=O)(=O)Nc1ccccc1)c1c(F)ccc(-c2ccccc2)c1F [Compound I-212]
> 100 µM,50 to 100 µM,O=C(NNS(=O)(=O)c1ccccc1)c1ccc(F)cc1 [Compound I-193]
≤ 10 µM,≤ 10 µM,Cc1cc(-c2ccccc2F)cc(C(=O)NNS(=O)(=O)c2ccccc2)c1F [Compound I-271]
10 to 50 µM,≤ 10 µM,O=C(NNS(=O)(=O)c1ccccc1)c1cc(Cl)ccc1F [Compound I-153]
10 to 50 µM,≤ 10 µM,COCC(=O)N1CC(CS(=O)(=O)NNC(=O)c2cc(-c3ccccc3)cc(C)c2F)C1 [Compound I-310]
50 to 100 µM,≤ 10 µM,Cc1cc(C(=O)NNS(=O)(=O)c2ccccc2)cc(-c2ccccc2)c1F [Compound I-126]
10 to 50 µM,10 to 50 µM,Cc1cc(-c2ccccc2)cc(C(=O)NNS(=O)(=O)C2CN(Cc3ccccc3Cl)C2)c1F [Compound I-37]
> 100 µM,50 to 100 µM,O=C(NNS(=O)(=O)c1ccccc1)c1c(F)ccc(-c2ncc[nH]2)c1F [Compound I-264]
50 to 100 µM,10 to 50 µM,Cc1cc(-c2ccccc2)cc(C(=O)NNS(=O)(=O)C2CN(CCO)C2)c1F [Compound I-42]
50 to 100 µM,≤ 10 µM,Cc1c(-c2ccccc2)ccc(F)c1C(=O)NNS(=O)(=O)c1ccccc1 [Compound I-251]
≤ 10 µM,≤ 10 µM,Cc1cc(-c2ccccc2)cc(C(=O)NNS(=O)(=O)c2cccnc2)c1F [Compound I-175]
> 100 µM,10 to 50 µM,Cc1cc(-c2ccncc2)cc(C(=O)NNS(=O)(=O)c2ccccc2)c1F [Compound I-202]
50 to 100 µM,10 to 50 µM,Cc1c(-c2ccccc2)ccc(F)c1C(=O)NNS(=O)(=O)c1ccc(Cl)cc1 [Compound I-241]
50 to 100 µM,≤ 10 µM,COc1ccc(Cn2cnc(-c3ccc(F)c(C(=O)NNS(=O)(=O)c4ccccc4)c3F)c2)cc1 [Compound I-222]
> 100 µM,> 100 µM,"Cc1cc(-c2ccccc2)cc(C(=O)NNS(=O)(=O)C2CNC2)c1F [Compound I-120, N′-(4-Fluoro-5-methyl-[1,1′-biphenyl]-3-carbonyl)azetidine-3-sulfonohydrazide hydrochloride]"
